Measurements published in patent US4495202A, “Terphenyl derivatives and pharmaceutical uses thereof” (Eli Lilly and Company, priority 1983, dated 1985).
Read-outs that look alike come from different tables or passages of the source.

Legend:
male Lewis-Wistar rats = test: Established adjuvant-induced arthritis test in rats; format: in vivo; conditions: rat, days 15-29, from areas under the curves of uninjected paw volume
[1] = tested on: Cox standard strain albino male mice; test: standard mouse writhing assay (acetic acid-induced writhing); format: in vivo
Method: The analgesic activity of a number of compounds provided by this invention has been determined in the standard mouse writhing assay. Writhing, which is characterized by contraction of the abdominal musculature, extension of the hindlegs, and rotation of the trunk, was induced in Cox standard strain albino male mice. […] Each treatment group consisted of five mice. The total number of writhes for the treatment group was determined during a 10-minute observation starting five minutes after acetic acid administration. […] Table I which follows presents typical test results obtained with certain of the compounds of this invention. The results in the mouse writhing assay are presented as the effective oral (p.o.) dose in mg./kg. of the tested compound required to inhibit induced writhing in the test animals by fifty percent (ED50).

[2] = 25 mg./kg. p.o. × 15, corn oil-acacia emulsion by gavage
[3] = 3 h, oral gavage in corn oil-acacia emulsion (5%), three hours before acetic acid (0.60 percent, i.p.), inhibition of writhing by fifty percent, read-out: Mouse Writhing ED50
[4] = 10 mg./kg. p.o. × 15, corn oil-acacia emulsion by gavage

Compound	% Inhibition of Uninjected Paw Volume Inflammation, Days 14 through 30 (male Lewis-Wistar rats; [2]) [%]	ED50 [1, 3] [mg/kg]	ED50 ([1]; 4 h, oral, at four hours post dosing, read-out: Mouse Writhing ED50 at four hours post dosing) [mg/kg]	% Inhibition of Uninjected Paw Volume Inflammation, Days 14 through 30 (male Lewis-Wistar rats; [4]) [%]
COc1ccc(-c2ccc(-c3ccc(F)cc3)cc2-c2ccc(OC)cc2)cc1 [Example 1, 4'-(4-Fluorophenyl)-4,4"-dimethoxy-1,1':2',1"-terphenyl]	55	11.8	3.9	–
COc1ccc(-c2ccc(-c3ccccc3)cc2-c2ccc(OC)cc2)cc1 [Example 2, 4'-Phenyl-4,4"-dimethoxy-1,1':2',1"-terphenyl]	13	14.6	–	–
COc1ccc(-c2ccc(-c3ccc(Cl)cc3)cc2-c2ccc(OC)cc2)cc1 [Example 3, 4'-(4-Chlorophenyl)-4,4"-dimethoxy-1,1':2',1"-terphenyl]	52	14.2	–	31
COc1ccc(-c2ccc(-c3ccc(Br)cc3)cc2-c2ccc(OC)cc2)cc1 [Example 4, 4'-(4-Bromophenyl)-4,4"-dimethoxy-1,1':2',1"-terphenyl]	34	72.8	–	–
COc1ccc(-c2ccc(-c3cccc(F)c3)cc2-c2ccc(OC)cc2)cc1 [Example 5, 4'-(3-Fluorophenyl)-4,4"-dimethoxy-1,1':2',1"-terphenyl]	40	8.9	–	–
COc1ccc(-c2ccc(C(F)(F)F)cc2-c2ccc(OC)cc2)cc1 [Example 6, 4'-Trifluoromethyl-4,4"-dimethoxy-1,1':2',1"-terphenyl]	–	5.6	–	48
